# Values quoted from earlier work as cited in patent US20120270995A1, “AQUEOUS FORMULATIONS INCLUDING DIOXOLANES AS COUPLING AGENTS” (RHODIA POLIAMIDA E ESPECIALIDADES LTDA, priority 2009, published 2012).
# Read-outs that look alike come from different tables or passages of the source.
# How the values were obtained:
# [1] = not given; remark: listed apart in the source
# [2] = in vivo
# [3] = in vivo; remark: listed apart in the source
# [4] = in vivo; remark: listed apart in the source
# [5] = CMR = carcinogenic/mutagenic/reproductively toxic
Compound,Vapour point (20° C.),Acute oral toxicity [1],Skin irritation [2],Eye irritation [3],Aquatic toxicity [4],Vapour point (25° C.),CMR [5],Vapour point (37.8° C.)
CCCCOCCOC(C)=O [Butylglycol acetate],0.4 mmHg,2360 mg/kg,weak,weak,103.17 mg/L,,,
CCCCOCCO [Butylglycol],0.8 mmHg,,,,,,,
CCOCCOCCO [Ethyldiglycol],,5500 mg/kg,severe,severe,13 400 mg/l,0.1 mmHg,,
CCOCCOC(C)=O [Ethylglycol acetate],2.0 mmHg,2900 mg/kg,severe,severe,244.66 mg/L,,cat. 2,
CCOCCO [Ethylglycol],,3000 mg/kg,moderate,weak,5000 mg/L,5.3 mmHg,cat. 2,
"CC1(C)OCC(CO)O1 (stereo not drawn) [Solketal, 2,2-Dimethyl-1,3-dioxolane-4-methanol]",,7000 mg/kg,moderate,moderate,>1000 mg/L,,,52.0 mmHg
Methylglycol,6.2 mmHg,18 000 mg/kg,weak,severe,18 000 mg/l,,,
